Experimental data from patent US11040041B2, “Method of treating pulmonary arterial hypertension” (Cipla (UK) Limited, priority 2015, dated 2021).

Columns and labels:
[1] = system: rats with monocrotaline induced pulmonary arterial hypertension; experiment: Hemodynamic evaluation in anesthetized rats treated with monocrotaline to induce pulmonary arterial hypertension; format: in vivo, Sprague-Dawley rats; settings: for RV/LV + S: Fulton's Index; for RV/LV + S / Body Weight / HR / HW/BW / Heart Wt / LV Wt / Lung Wt / MAP / Mean PAP / RV Wt / RV/BW / Systolic PAP: day 28 after monocrotaline, mean ± SEM
Procedure: The studies were conducted for Hemodynamic Evaluation of Paliperidone palmitate in Anesthetized Sprague Dawley Rats Treated with Monocrotaline to Induce Pulmonary Arterial Hypertension. Sildenafil was used as an internal control to compare the effects of Paliperidone palmitate.
Adult male Sprague-Dawley rats (287±4 g) were obtained from Charles River Laboratories (Raleigh, N.C.). Animals housed individually in a temperature/humidity controlled room with 12-hour light/dark cycles, had free access to water and food and were acclimated for one week prior to the study. Rats were randomly assigned (n=10 per group). Rats in groups 1 and 2 served as healthy controls; the remaining rats were injected subcutaneously on Day 0 with 60 mg/kg body weight monocrotaline, the toxic alkaloid of Crotalaria spectabilis, (dissolved in DMSO at a concentration of 60 mg/ml, Sigma Aldrich, St. Louis, Mo.). On days 1-21, the rats were dosed via oral gavage (2 ml/kg) with vehicle (PBS), or the test compound—Paliperidone palmitate. Rats were weighed daily, and the dosages of test compound adjusted appropriately.
Monocrotaline (MCT) is an 11-membered macrocyclic pyrrolizidine plant alkaloid. A single SQ injection into rats results in hepatic generation of toxic metabolite—MCT pyrrole. Phase II metabolism of MCT is through glutathione conjugation. Reactive metabolite is transported to lungs, injuring pulmonary vasculature.
The effects of sildenafil and Paliperidone palmitate were evaluated in rats with monocrotaline induced pulmonary arterial hypertension. Male Sprague-Dawley rats were orally administered vehicle, Paliperidone palmitate (1.25 or 3.75 mg/kg, once every day for 28 days starting on Day 1, or sildenafil (30 mg/kg, administered twice daily) (n=10 in each group). Rats received a single injection of monocrotaline (60 mg/kg, s.c.) on Study Day 1. On the twenty-eighth day following monocrotaline dosing, the rats were anesthetized with ketamine/xylazine for terminal monitoring of pulmonary and systemic arterial pressures along with heart rate.
The Table 1 gives the study design for the test article and vehicle administrations.

[2] = system: rats with monocrotaline induced pulmonary arterial hypertension; experiment: as above; format: in vivo, Sprague-Dawley rats; settings: 3.25 mg/kg dosing (so in the source), after 28 days
[3] = Paliperidone palmitate 1.25 mg/kg oral once daily
[4] = Paliperidone palmitate 3.75 mg/kg oral once daily
[5] = after 28 days, monocrotaline rats
[6] = Sildenafil 60 mg/kg/day bid oral

SMILES: CCCCCCCCCCCCCCCC(=O)OC1CCCn2c1nc(C)c(CCN1CCC(c3noc4cc(F)ccc34)CC1)c2=O (stereo not shown) [Paliperidone palmitate, Hexadecanoic acid 3-[2-[4-(6-fluoro-1,2-benzisoxazol-3-yl)piperidin-1-yl]ethyl]-2-methyl-4-oxo-6,7,8,9-tetrahydro-4H-pyri do[1,2-a]pyrimidin-9-yl ester]
- reduction in systolic pulmonary arterial pressure compared to the vehicle group ([1]; 1.25 mg/kg dosing, after 28 days, monocrotaline rats): 25%
- right ventricular hypertrophy (RV/LV+S, Fulton's Index) change compared to vehicle ([1]; 1.25 mg/kg, after 28 days, monocrotaline rats): −12%
- right ventricular hypertrophy (RV/LV+S, Fulton's Index) change compared to vehicle ([1]; 3.75 mg/kg, after 28 days, monocrotaline rats): −7%
- RV/LV + S [1, 3]: 0.52 ± 0.04
- RV/LV + S [1, 4]: 0.55 ± 0.06
- Body Weight [1, 3]: 0.33 ± 0.02 kg
- HR [1, 3]: 253 ± 36 bpm
- HW/BW [1, 3]: 3.94 ± 0.22
- Heart Wt [1, 3]: 1.28 ± 0.03 g
- LV Wt [1, 3]: 0.77 ± 0.01 g
- Lung Wt [1, 3]: 2.59 ± 0.13 g
- MAP [1, 3]: 54 ± 9 mm Hg
- Mean PAP [1, 3]: 34 ± 1 mm Hg
- RV Wt [1, 3]: 0.39 ± 0.02 g
- RV/BW [1, 3]: 1.22 ± 0.10
- Systolic PAP [1, 3]: 45 ± 3 mm Hg
- Body Weight [1, 4]: 0.33 ± 0.02 kg
- HR [1, 4]: 312 ± 12 bpm
- HW/BW [1, 4]: 3.92 ± 0.21
- Heart Wt [1, 4]: 1.28 ± 0.06 g
- LV Wt [1, 4]: 0.73 ± 0.03 g
- Lung Wt [1, 4]: 2.23 ± 0.04 g
- MAP [1, 4]: 68 ± 5 mm Hg
- Mean PAP [1, 4]: 39 ± 3 mm Hg
- RV Wt [1, 4]: 0.40 ± 0.03 g
- RV/BW [1, 4]: 1.22 ± 0.12
- Systolic PAP [1, 4]: 48 ± 3 mm Hg
- differences in heart rate compared to vehicle [1, 5]: No substantive differences
- differences in mean arterial pressure compared to vehicle [1, 5]: No substantive differences
- decrease in hypertrophy, RV (wt) corrected by body weight ([1]; at either dose (1.25 or 3.75 mg/kg), after 28 days, monocrotaline rats): 19%
- development of PAH in the rat monocrotaline (MCT) model ([1]; daily oral doses, text says three weeks): prevent the development of PAH
- reduction in systolic pulmonary arterial pressure compared to the vehicle group [2]: 20%

SMILES: CCCc1nn(C)c2c(=O)[nH]c(-c3cc(S(=O)(=O)N4CCN(C)CC4)ccc3OCC)nc12 [Sildenafil]
- RV/LV + S [1, 6]: 0.51 ± 0.03
- Body Weight [1, 6]: 0.32 ± 0.01 kg
- HR [1, 6]: 278 ± 21 bpm
- HW/BW [1, 6]: 3.89 ± 0.17
- Heart Wt [1, 6]: 1.24 ± 0.02 g
- LV Wt [1, 6]: 0.74 ± 0.02 g
- Lung Wt [1, 6]: 2.36 ± 0.13 g
- MAP [1, 6]: 69 ± 5 mm Hg
- Mean PAP [1, 6]: 38 ± 6 mm Hg
- RV Wt [1, 6]: 0.38 ± 0.02 g
- RV/BW [1, 6]: 1.19 ± 0.09
- Systolic PAP [1, 6]: 46 ± 7 mm Hg
- differences in heart rate compared to vehicle [1, 5]: No substantive differences
- differences in mean arterial pressure compared to vehicle [1, 5]: No substantive differences
- decrease in hypertrophy, RV (wt) corrected by body weight ([1]; sildenafil (30 mg/kg twice daily), after 28 days, monocrotaline rats): 21%
- right ventricular hypertrophy (RV/LV+S, Fulton's Index) change compared to vehicle ([1]; sildenafil cohort (30 mg/kg twice daily), after 28 days, monocrotaline rats): −14%
- reduction of SPAP compared to the vehicle group ([1]; sildenafil group (30 mg/kg twice daily), after 28 days, monocrotaline rats): 23%
